From ChEMBL document CHEMBL3885861, “Open TG-GATES”

Species on record: Rattus norvegicus
Assay: Open TG-GATES - Regimen: Single
Format: toxicity, organism-based, Sprague-Dawley
Design: regimen Single, gender Male, age 6 weeks
Settings: in vivo, po, route gavage; for Bas / Eos / Fbg / Lym / Mono / RBC / Ret / WBC: tissue Blood; for KIDNEY_L / KIDNEY_R / KIDNEY_TOTAL: tissue Kidney; for ALP / CRE / DBIL / IP / K / LDH / Na / PL / RALB / TBIL / TG / TP / gamma-GTP / GLC: tissue Plasma
[1] = 0 mg/kg, 3 h, dose level Control
[2] = 0 mg/kg, 6 h, dose level Control
[3] = 0 mg/kg, 9 h, dose level Control
[4] = 0 mg/kg, 24 h, dose level Control

Structure (SMILES): C=C[C@H]1C[N@@]2CC[C@H]1C[C@@H]2[C@@H](O)c1ccnc2ccc(OC)cc12 [QUINIDINE]
- TERMINAL_BW [1]: 212.2 g
- Bas [1]: 0%
- Eos [1]: 0.8%
- Fbg [1]: 313.6 mg/dL
- Lym [1]: 78.2%
- Mono [1]: 1.8%
- RBC [1]: 615 x10_4/ul
- Ret [1]: 7.3%
- WBC [1]: 86.7 x10_2/uL
- KIDNEY_L [1]: 0.9 g
- KIDNEY_R [1]: 1 g
- KIDNEY_TOTAL [1]: 1.9 g
- ALP [1]: 1497.8 IU/L
- CRE [1]: 0.2 mg/dL
- DBIL [1]: 0 mg/dL
- IP [1]: 8.8 mg/dL
- K [1]: 3.9 meq/L
- LDH [1]: 153 IU/L
- Na [1]: 143.8 meq/L
- PL [1]: 136 mg/dL
- RALB [1]: 3 g/dL
- TBIL [1]: 0.018 mg/dL
- TG [1]: 60.6 mg/dL
- TP [1]: 5.4 g/dL
- gamma-GTP [1]: 1.8 IU/L
- TERMINAL_BW [2]: 213.3 g
- Bas [2]: 0%
- Eos [2]: 0.6%
- Fbg [2]: 318.2 mg/dL
- Lym [2]: 81.4%
- Mono [2]: 2.2%
- RBC [2]: 641 x10_4/ul
- Ret [2]: 7%
- WBC [2]: 100 x10_2/uL
- KIDNEY_L [2]: 1 g
- KIDNEY_R [2]: 1 g
- KIDNEY_TOTAL [2]: 1.9 g
- ALP [2]: 1503.8 IU/L
- CRE [2]: 0.2 mg/dL
- DBIL [2]: 0 mg/dL
- IP [2]: 9.3 mg/dL
- K [2]: 4.2 meq/L
- LDH [2]: 187 IU/L
- Na [2]: 143 meq/L
- PL [2]: 134.8 mg/dL
- RALB [2]: 3.1 g/dL
- TBIL [2]: 0.018 mg/dL
- TG [2]: 73.6 mg/dL
- TP [2]: 5.4 g/dL
- gamma-GTP [2]: 1.2 IU/L
- TERMINAL_BW [3]: 212.8 g
- Bas [3]: 0%
- Eos [3]: 0.4%
- Fbg [3]: 288.2 mg/dL
- Lym [3]: 79.4%
- Mono [3]: 2%
- RBC [3]: 614.8 x10_4/ul
- Ret [3]: 6.9%
- WBC [3]: 84.8 x10_2/uL
- KIDNEY_L [3]: 1 g
- KIDNEY_R [3]: 1 g
- KIDNEY_TOTAL [3]: 1.9 g
- ALP [3]: 1297.8 IU/L
- CRE [3]: 0.2 mg/dL
- DBIL [3]: 0 mg/dL
- GLC [3]: 174.2 mg/dL
- IP [3]: 9.6 mg/dL
- K [3]: 4.4 meq/L
- LDH [3]: 136.6 IU/L
- Na [3]: 143.8 meq/L
- PL [3]: 131.6 mg/dL
- RALB [3]: 3 g/dL
- TBIL [3]: 0.022 mg/dL
- TG [3]: 66 mg/dL
- TP [3]: 5.5 g/dL
- gamma-GTP [3]: 1.6 IU/L
- TERMINAL_BW [4]: 227.4 g
- Bas [4]: 0%
- Eos [4]: 0.8%
- Fbg [4]: 298.2 mg/dL
- Lym [4]: 78.6%
- Mono [4]: 1.8%
- RBC [4]: 618.4 x10_4/ul
- Ret [4]: 6.9%
- WBC [4]: 90.9 x10_2/uL
- KIDNEY_L [4]: 1 g
- KIDNEY_R [4]: 1 g
- KIDNEY_TOTAL [4]: 2 g
- ALP [4]: 1610.6 IU/L
- CRE [4]: 0.1 mg/dL
- DBIL [4]: 0 mg/dL
- IP [4]: 7.9 mg/dL
- K [4]: 4.3 meq/L
- LDH [4]: 202.2 IU/L
- Na [4]: 141.6 meq/L
- PL [4]: 149.8 mg/dL
- RALB [4]: 3 g/dL
- TBIL [4]: 0.008 mg/dL
- TP [4]: 5.7 g/dL
- gamma-GTP [4]: 1.6 IU/L
- TERMINAL_BW (20 mg/kg, 3 h, dose level Low): 218.9 g
- Bas (20 mg/kg, 3 h, dose level Low): 0%
- Eos (20 mg/kg, 3 h, dose level Low): 0.2%
- Fbg (20 mg/kg, 3 h, dose level Low): 293.2 mg/dL
- Lym (20 mg/kg, 3 h, dose level Low): 81%
- Mono (20 mg/kg, 3 h, dose level Low): 2%
- RBC (20 mg/kg, 3 h, dose level Low): 600.6 x10_4/ul
- Ret (20 mg/kg, 3 h, dose level Low): 7.5%
- WBC (20 mg/kg, 3 h, dose level Low): 73.2 x10_2/uL
- KIDNEY_L (20 mg/kg, 3 h, dose level Low): 1 g
- KIDNEY_R (20 mg/kg, 3 h, dose level Low): 1 g
- KIDNEY_TOTAL (20 mg/kg, 3 h, dose level Low): 2 g
- ALP (20 mg/kg, 3 h, dose level Low): 1446.4 IU/L
- CRE (20 mg/kg, 3 h, dose level Low): 0.2 mg/dL
- DBIL (20 mg/kg, 3 h, dose level Low): 0 mg/dL
- GLC (20 mg/kg, 3 h, dose level Low): 178.4 mg/dL
- IP (20 mg/kg, 3 h, dose level Low): 8.7 mg/dL
- K (20 mg/kg, 3 h, dose level Low): 3.7 meq/L
- Na (20 mg/kg, 3 h, dose level Low): 142 meq/L
- PL (20 mg/kg, 3 h, dose level Low): 145 mg/dL
- RALB (20 mg/kg, 3 h, dose level Low): 3 g/dL
- TBIL (20 mg/kg, 3 h, dose level Low): 0.022 mg/dL
- TG (20 mg/kg, 3 h, dose level Low): 68.2 mg/dL
- TP (20 mg/kg, 3 h, dose level Low): 5.4 g/dL
- gamma-GTP (20 mg/kg, 3 h, dose level Low): 1.8 IU/L
- TERMINAL_BW (20 mg/kg, 6 h, dose level Low): 214.6 g
- Bas (20 mg/kg, 6 h, dose level Low): 0%
- Eos (20 mg/kg, 6 h, dose level Low): 0.8%
- Fbg (20 mg/kg, 6 h, dose level Low): 294.2 mg/dL
- Lym (20 mg/kg, 6 h, dose level Low): 78%
- Mono (20 mg/kg, 6 h, dose level Low): 2.6%
- RBC (20 mg/kg, 6 h, dose level Low): 617.4 x10_4/ul
- Ret (20 mg/kg, 6 h, dose level Low): 7.3%
- WBC (20 mg/kg, 6 h, dose level Low): 80 x10_2/uL
- KIDNEY_L (20 mg/kg, 6 h, dose level Low): 0.9 g
- KIDNEY_R (20 mg/kg, 6 h, dose level Low): 1 g
- KIDNEY_TOTAL (20 mg/kg, 6 h, dose level Low): 1.9 g
- ALP (20 mg/kg, 6 h, dose level Low): 1616.2 IU/L
- CRE (20 mg/kg, 6 h, dose level Low): 0.2 mg/dL
- DBIL (20 mg/kg, 6 h, dose level Low): 0.004 mg/dL
- IP (20 mg/kg, 6 h, dose level Low): 9.4 mg/dL
- K (20 mg/kg, 6 h, dose level Low): 4 meq/L
- Na (20 mg/kg, 6 h, dose level Low): 142.8 meq/L
- PL (20 mg/kg, 6 h, dose level Low): 140.6 mg/dL
- RALB (20 mg/kg, 6 h, dose level Low): 3 g/dL
- TBIL (20 mg/kg, 6 h, dose level Low): 0.034 mg/dL
- TG (20 mg/kg, 6 h, dose level Low): 55.6 mg/dL
- TP (20 mg/kg, 6 h, dose level Low): 5.4 g/dL
- gamma-GTP (20 mg/kg, 6 h, dose level Low): 1.2 IU/L
- TERMINAL_BW (20 mg/kg, 9 h, dose level Low): 213.3 g
- Bas (20 mg/kg, 9 h, dose level Low): 0%
- Eos (20 mg/kg, 9 h, dose level Low): 0.8%
- Fbg (20 mg/kg, 9 h, dose level Low): 302.6 mg/dL
- Lym (20 mg/kg, 9 h, dose level Low): 77.2%
- Mono (20 mg/kg, 9 h, dose level Low): 2.2%
- RBC (20 mg/kg, 9 h, dose level Low): 642 x10_4/ul
- Ret (20 mg/kg, 9 h, dose level Low): 6.9%
- WBC (20 mg/kg, 9 h, dose level Low): 88 x10_2/uL
- KIDNEY_L (20 mg/kg, 9 h, dose level Low): 1 g
- KIDNEY_R (20 mg/kg, 9 h, dose level Low): 1 g
- KIDNEY_TOTAL (20 mg/kg, 9 h, dose level Low): 2 g
- ALP (20 mg/kg, 9 h, dose level Low): 1487 IU/L
- CRE (20 mg/kg, 9 h, dose level Low): 0.2 mg/dL
- DBIL (20 mg/kg, 9 h, dose level Low): 0 mg/dL
- IP (20 mg/kg, 9 h, dose level Low): 9.3 mg/dL
- K (20 mg/kg, 9 h, dose level Low): 4.4 meq/L
- LDH (20 mg/kg, 9 h, dose level Low): 133.8 IU/L
- Na (20 mg/kg, 9 h, dose level Low): 143.8 meq/L
- PL (20 mg/kg, 9 h, dose level Low): 136.8 mg/dL
- RALB (20 mg/kg, 9 h, dose level Low): 3 g/dL
- TBIL (20 mg/kg, 9 h, dose level Low): 0.02 mg/dL
- TG (20 mg/kg, 9 h, dose level Low): 83.4 mg/dL
- TP (20 mg/kg, 9 h, dose level Low): 5.5 g/dL
- gamma-GTP (20 mg/kg, 9 h, dose level Low): 1.6 IU/L
- TERMINAL_BW (20 mg/kg, 24 h, dose level Low): 228.7 g
- Bas (20 mg/kg, 24 h, dose level Low): 0%
- Eos (20 mg/kg, 24 h, dose level Low): 1%
- Fbg (20 mg/kg, 24 h, dose level Low): 321.4 mg/dL
- Lym (20 mg/kg, 24 h, dose level Low): 82.4%
- Mono (20 mg/kg, 24 h, dose level Low): 2.4%
- RBC (20 mg/kg, 24 h, dose level Low): 632.8 x10_4/ul
- Ret (20 mg/kg, 24 h, dose level Low): 6.7%
- WBC (20 mg/kg, 24 h, dose level Low): 97.6 x10_2/uL
- KIDNEY_L (20 mg/kg, 24 h, dose level Low): 1 g
- KIDNEY_R (20 mg/kg, 24 h, dose level Low): 1 g
- KIDNEY_TOTAL (20 mg/kg, 24 h, dose level Low): 1.9 g
- ALP (20 mg/kg, 24 h, dose level Low): 1563 IU/L
- CRE (20 mg/kg, 24 h, dose level Low): 0.1 mg/dL
- DBIL (20 mg/kg, 24 h, dose level Low): 0.002 mg/dL
- IP (20 mg/kg, 24 h, dose level Low): 7.7 mg/dL
- K (20 mg/kg, 24 h, dose level Low): 4 meq/L
- Na (20 mg/kg, 24 h, dose level Low): 140.4 meq/L
- RALB (20 mg/kg, 24 h, dose level Low): 3.1 g/dL
- TBIL (20 mg/kg, 24 h, dose level Low): 0 mg/dL
- TG (20 mg/kg, 24 h, dose level Low): 147.8 mg/dL
- TP (20 mg/kg, 24 h, dose level Low): 5.8 g/dL
- gamma-GTP (20 mg/kg, 24 h, dose level Low): 1.8 IU/L
- TERMINAL_BW (60 mg/kg, 3 h, dose level Middle): 222.4 g
